Results taken from patent US8962528B2, “Penoxsulam as an herbicide in alfalfa” (Dow AgroSciences, LLC., priority 2011, dated 2015).

Key:
alfalfa = settings: in vivo
Method: (§1) A field trial (California) was conducted in field-grown alfalfa using standard herbicide small plot research methodology. Plots were 7.5 ft by 20 ft long with 4 replicates per treatment. The alfalfa crop was already established the previous season and was grown using normal cultural practices for fertilization, seeding, watering, and maintenance to ensure good growth of the crop. All treatments in the field trials were applied using a CO2 backpack sprayer calibrated to apply 187 L/ha spray volume. Commercially available product of penoxsulam was mixed in water at appropriate formulated product rates to achieve the desired rates based on a unit area of application (hectare). Treatments were sprayed as a postemergence application to the soil when alfalfa was in the late dormant stage of growth. “Late dormant” growth stage is defined as when the crop is not actively growing during the winter season and just prior to emerging from dormancy and starting new growth for the growing season. Treatments were rated at 26 to 63 days after the application as compared to the untreated control plants, when the alfalfa crop was no longer dormant. Visual crop injury ratings were scored on a scale of 0 to 100 where 0 corresponds to no injury and 100 corresponds to complete control.

[1] = system: CAPBP = Capsella bursa-pastoris, Shepherd's purse; experiment: Field trial of weed control in dormant alfalfa; format: in vivo; settings: for Control % Visual CAPBP: 45 DAAA, POST, NOV/JAN
Method: as §1

[2] = system: POAAN = Poa annua, annual bluegrass; experiment: Field trial of weed control in dormant alfalfa; format: in vivo; settings: for Control % Visual POAAN: 45 DAAA, POST, NOV/JAN
Method: as §1

[3] = system: STEME = Stellaria media, chickweed; experiment: Field trial of weed control in dormant alfalfa; format: in vivo; settings: for Control % Visual STEME: 45 DAAA, POST, NOV/JAN
Method: as §1

[4] = 35 gr ai/ha + AGRI-DEX COC 2.33 liter/ha
[5] = 70 gr ai/ha + AGRI-DEX COC 2.33 liter/ha
[6] = 140 gr ai/ha + AGRI-DEX COC 2.33 liter/ha
[7] = 45DAAA, all rates, burndown and/or residual activity

COc1cnc(OC)n2nc(NS(=O)(=O)c3c(OCC(F)F)cccc3C(F)(F)F)nc12 [PENOXSULAM]
% Visual Injury of alfalfa compared to the Untreated (alfalfa): some slight visual injury | alfalfa growth (% Visual Regrowth) as compared to the Untreated (alfalfa): no effect | alfalfa regrowth as compared to the Untreated (alfalfa): no significant difference | Control % Visual CAPBP [1, 4]: 100 a % Visual | Control % Visual CAPBP [1, 5]: 100 a % Visual | Control % Visual CAPBP [1, 6]: 100 a % Visual | control of CAPBP (Sheperd's purse) [1, 7]: 100% | Control % Visual POAAN [2, 4]: 65 b % Visual | Control % Visual POAAN [2, 5]: 79 ab % Visual | Control % Visual POAAN [2, 6]: 91 a % Visual | control of grass weed POAAN (annual bluegrass) ([2]; 45DAAA, dependent on the rate applied): significant suppression/partial control | Control % Visual STEME [3, 4]: 100 a % Visual | Control % Visual STEME [3, 5]: 100 a % Visual | Control % Visual STEME [3, 6]: 100 a % Visual | control of STEME (chickweed) [3, 7]: 100%
